Laboratory results published in patent US11572399B2, “Long-acting GIP peptide analogues” (University of Copenhagen, priority 2017, dated 2023).
Peptide text beside a SMILES is read from it. * marks the point of attachment. C16 diacid = O=C(O)CCCCCCCCCCCCCCC(=O)*; Lauroyl = CCCCCCCCCCCC(=O)*

Molecular target: T1, human GIP receptor (Homo sapiens, UniProt P48546)
T1 construct: host or cells: COS-7, transient transfection (calcium phosphate), cDNA in pCMV-Script
T1 sequence (P48546 22-466): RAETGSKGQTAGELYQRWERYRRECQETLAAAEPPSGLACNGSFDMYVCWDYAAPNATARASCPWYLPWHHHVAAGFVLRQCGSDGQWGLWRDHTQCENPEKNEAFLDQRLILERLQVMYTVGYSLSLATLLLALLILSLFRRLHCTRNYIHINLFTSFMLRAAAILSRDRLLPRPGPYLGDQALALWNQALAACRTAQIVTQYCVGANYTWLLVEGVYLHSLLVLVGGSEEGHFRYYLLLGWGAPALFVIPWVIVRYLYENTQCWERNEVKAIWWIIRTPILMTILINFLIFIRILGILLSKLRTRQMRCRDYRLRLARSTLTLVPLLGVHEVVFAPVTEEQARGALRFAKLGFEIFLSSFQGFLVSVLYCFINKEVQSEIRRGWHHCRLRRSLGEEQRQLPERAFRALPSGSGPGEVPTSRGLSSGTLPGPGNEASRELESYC
Experiment: cAMP accumulation assay, agonism (ligand alone)
Type: cell-based
Details: COS-7 cells, Table 1; for Emax: COS-7, intrinsic cAMP activity; for EC50: read-out: cAMP agonism nM (EC50)
Experimental: COS-7 cells were cultured at 10% CO2 and 37° C. in Dulbecco's modified Eagle's medium 1885 supplemented with 10% fetal bovine serum, 2 mM glutamine, 180 units/ml penicillin, and 45 µg/ml streptomycin. Transient transfection of the COS-7 cells for cAMP accumulation and competition binding was performed using the calcium phosphate precipitation method with the addition of chloroquine^46-47.
Transient transfected COS-7 cells expressing the human GIP receptor were seeded in white 96-well plates with a density of 3.5*10^4/well. The day after, the cells were washed twice with Hepes buffered saline (HBS) buffer and incubated with HBS and 1 mM 3-isobutyl-1-methylxanthine (IBMX) for 30 min at 37° C. To test for agonistic properties, ligands were added and incubated for 30 min at 37° C. In order to test for antagonistic properties, the cells were preincubated with the antagonists for 10 min prior to the addition of the agonist and subsequent incubated for 20 additional min. The HitHunter™ cAMP XS assay (DiscoveRx) was carried out according to the manufacturer's instructions.
IC50, EC50, and Ki values were determined by nonlinear regression. These were carried out with the GraphPad Prism 6.0 software (GraphPad, San Diego, Calif., USA) and Microsoft Excel™. Ki values were based on the formula for one class of binding sites in homologous competition binding studies and the Cheng Prussoffs formula, respectively (DeBlasi et al., 1989). To determine the HSA binding potential, the fold change in affinity (as determined by IC50) was calculated as IC50 (plus HSA)/IC50 (minus HSA).

Structure (SMILES) | Emax [%] | EC50 [nM] | cAMP agonism Emax (intrinsic cAMP activity)
CC[C@H](C)[C@H](NC(=O)[C@H](CO)NC(=O)[C@H](Cc1ccc(O)cc1)NC(=O)[C@H](CC(=O)O)NC(=O)[C@H](CO)NC(=O)[C@@H](NC(=O)[C@H](Cc1ccccc1)NC(=O)[C@@H](NC(=O)CNC(=O)[C@@H](N)CCC(=O)O)[C@@H](C)O)[C@@H](C)CC)C(=O)N[C@@H](C)C(=O)N[C@@H](CCSC)C(=O)N[C@@H](CC(=O)O)C(=O)N[C@@H](CCCCN)C(=O)N[C@H](C(=O)N[C@@H](Cc1c[nH]cn1)C(=O)N[C@@H](CCC(N)=O)C(=O)N[C@@H](CCC(N)=O)C(=O)N[C@@H](CC(=O)O)C(=O)N[C@@H](Cc1ccccc1)C(=O)N[C@H](C(=O)N[C@@H](CC(N)=O)C(=O)N[C@@H](CCCCNC(=O)CCCCCCCCCCCCCCC(=O)O)C(=O)N[C@@H](CC(C)C)C(=O)N[C@@H](CC(C)C)C(=O)N[C@@H](C)C(=O)N[C@@H](CCC(N)=O)C(=O)N[C@@H](CCCCN)C(N)=O)C(C)C)[C@@H](C)CC [AT314, [hGIP(3-30)NH2[W25K]-C16diacid/25]] (H-EGTFISDYSIAMDKIHQQDFVNK(C16 diacid)LLAQK-NH2; N-terminus assumed) | 28.4 | 62 | –
CC[C@H](C)[C@H](NC(=O)[C@H](CO)NC(=O)[C@H](CCCCNC(=O)CCCCCCCCCCCCCCC(=O)O)NC(=O)[C@H](CC(=O)O)NC(=O)[C@H](CO)NC(=O)[C@@H](NC(=O)[C@H](Cc1ccccc1)NC(=O)[C@@H](NC(=O)CNC(=O)[C@@H](N)CCC(=O)O)[C@@H](C)O)[C@@H](C)CC)C(=O)N[C@@H](C)C(=O)N[C@@H](CCSC)C(=O)N[C@@H](CC(=O)O)C(=O)N[C@@H](CCCCN)C(=O)N[C@H](C(=O)N[C@@H](Cc1c[nH]cn1)C(=O)N[C@@H](CCC(N)=O)C(=O)N[C@@H](CCC(N)=O)C(=O)N[C@@H](CC(=O)O)C(=O)N[C@@H](Cc1ccccc1)C(=O)N[C@H](C(=O)N[C@@H](CC(N)=O)C(=O)N[C@@H](Cc1c[nH]c2ccccc12)C(=O)N[C@@H](CC(C)C)C(=O)N[C@@H](CC(C)C)C(=O)N[C@@H](C)C(=O)N[C@@H](CCC(N)=O)C(=O)N[C@@H](CCCCN)C(N)=O)C(C)C)[C@@H](C)CC [AT301, [hGIP(3-30)NH2[Y10K]-C16diacid/10]] (H-EGTFISDK(C16 diacid)SIAMDKIHQQDFVNWLLAQK-NH2; N-terminus assumed) | 8.5 | 12 | –
CCCCCCCCCCCC(=O)NCCCC[C@H](NC(=O)[C@H](CCC(N)=O)NC(=O)[C@H](C)NC(=O)[C@H](CC(C)C)NC(=O)[C@H](CC(C)C)NC(=O)[C@H](Cc1c[nH]c2ccccc12)NC(=O)[C@H](CC(N)=O)NC(=O)[C@@H](NC(=O)[C@H](Cc1ccccc1)NC(=O)[C@H](CC(=O)O)NC(=O)[C@H](CCC(N)=O)NC(=O)[C@H](CCC(N)=O)NC(=O)[C@H](C)NC(=O)[C@@H](NC(=O)[C@H](CCCCN)NC(=O)[C@H](CCC(=O)O)NC(=O)[C@H](CCSC)NC(=O)[C@H](C)NC(=O)[C@@H](NC(=O)[C@H](CO)NC(=O)[C@H](Cc1ccc(O)cc1)NC(=O)[C@H](CC(=O)O)NC(=O)[C@H](CO)NC(=O)[C@@H](NC(=O)[C@H](Cc1ccccc1)NC(=O)[C@@H](NC(=O)CNC(=O)[C@@H](N)CCC(=O)O)[C@@H](C)O)[C@@H](C)CC)[C@@H](C)CC)[C@@H](C)CC)C(C)C)C(N)=O [AT130, [hGIP(3-30)NH2[D15E; H18A]-C12/30]] (H-EGTFISDYSIAMEKIAQQDFVNWLLAQK(Lauroyl)-NH2; N-terminus assumed) | 49 | – | –
CCCCCCCCCCCCCCCC(=O)NCCCC[C@H](NC(=O)[C@H](CCC(N)=O)NC(=O)[C@H](C)NC(=O)[C@H](CC(C)C)NC(=O)[C@H](CC(C)C)NC(=O)[C@H](Cc1c[nH]c2ccccc12)NC(=O)[C@H](CC(N)=O)NC(=O)[C@@H](NC(=O)[C@H](Cc1ccccc1)NC(=O)[C@H](CC(=O)O)NC(=O)[C@H](CCC(N)=O)NC(=O)[C@H](CCC(N)=O)NC(=O)[C@H](Cc1c[nH]cn1)NC(=O)[C@@H](NC(=O)[C@H](CCCCN)NC(=O)[C@H](CC(=O)O)NC(=O)[C@H](CCSC)NC(=O)[C@H](C)NC(=O)[C@@H](NC(=O)[C@H](CO)NC(=O)[C@H](Cc1ccc(O)cc1)NC(=O)[C@H](CC(=O)O)NC(=O)[C@H](CO)NC(=O)[C@@H](NC(=O)[C@H](Cc1ccccc1)NC(=O)[C@@H](NC(=O)CNC(=O)[C@@H](N)CCC(=O)O)[C@@H](C)O)[C@@H](C)CC)[C@@H](C)CC)[C@@H](C)CC)C(C)C)C(N)=O [AT106, [hGIP(3-30)NH2—C16/30]] | 64 | – | –
CC[C@H](C)[C@H](NC(=O)[C@H](CO)NC(=O)[C@H](Cc1ccc(O)cc1)NC(=O)[C@H](CC(=O)O)NC(=O)[C@H](CO)NC(=O)[C@@H](NC(=O)[C@H](Cc1ccccc1)NC(=O)[C@@H](NC(=O)CNC(=O)[C@@H](N)CCC(=O)O)[C@@H](C)O)[C@@H](C)CC)C(=O)N[C@@H](C)C(=O)N[C@@H](CCSC)C(=O)N[C@@H](CC(=O)O)C(=O)N[C@@H](CCCCN)C(=O)N[C@H](C(=O)N[C@@H](Cc1c[nH]cn1)C(=O)N[C@@H](CCC(N)=O)C(=O)N[C@@H](CCCCNC(=O)CCCCCCCCCCCCCCC(=O)O)C(=O)N[C@@H](CC(=O)O)C(=O)N[C@@H](Cc1ccccc1)C(=O)N[C@H](C(=O)N[C@@H](CC(N)=O)C(=O)N[C@@H](Cc1c[nH]c2ccccc12)C(=O)N[C@@H](CC(C)C)C(=O)N[C@@H](CC(C)C)C(=O)N[C@@H](C)C(=O)N[C@@H](CCC(N)=O)C(=O)N[C@@H](CCCCN)C(N)=O)C(C)C)[C@@H](C)CC [AT309, [hGIP(3-30)NH2[Q20K]-C16diacid/20]] (H-EGTFISDYSIAMDKIHQK(C16 diacid)DFVNWLLAQK-NH2; N-terminus assumed) | – | – | no ag.
CCCCCCCCCCCCCCCC(=O)NCCCC[C@H](NC(=O)[C@H](CCC(N)=O)NC(=O)[C@H](C)NC(=O)[C@H](CC(C)C)NC(=O)[C@H](CC(C)C)NC(=O)[C@H](Cc1c[nH]c2ccccc12)NC(=O)[C@H](CC(N)=O)NC(=O)[C@@H](NC(=O)[C@H](Cc1ccccc1)NC(=O)[C@H](CC(=O)O)NC(=O)[C@H](CCC(N)=O)NC(=O)[C@H](CCC(N)=O)NC(=O)[C@H](Cc1c[nH]cn1)NC(=O)[C@@H](NC(=O)[C@H](CCCCN)NC(=O)[C@H](CC(=O)O)NC(=O)[C@H](CCSC)NC(=O)[C@H](C)NC(=O)[C@@H](NC(=O)[C@H](CO)NC(=O)[C@H](Cc1ccc(O)cc1)NC(=O)[C@H](CC(=O)O)NC(=O)[C@H](CO)NC(=O)[C@@H](NC(=O)[C@H](Cc1ccccc1)NC(=O)[C@@H](N)[C@@H](C)O)[C@@H](C)CC)[C@@H](C)CC)[C@@H](C)CC)C(C)C)C(N)=O [AT126, [hGIP(5-30)NH2—C16/30]] | 75 | 316 | –
CC[C@H](C)[C@H](NC(=O)[C@H](CO)NC(=O)[C@H](Cc1ccc(O)cc1)NC(=O)[C@H](CC(=O)O)NC(=O)[C@H](CO)NC(=O)[C@@H](NC(=O)[C@H](Cc1ccccc1)NC(=O)[C@@H](NC(=O)CNC(=O)[C@@H](N)CCC(=O)O)[C@@H](C)O)[C@@H](C)CC)C(=O)N[C@@H](C)C(=O)N[C@@H](CCSC)C(=O)N[C@@H](CC(=O)O)C(=O)N[C@@H](CCCCN)C(=O)N[C@H](C(=O)N[C@@H](Cc1c[nH]cn1)C(=O)N[C@@H](CCC(N)=O)C(=O)N[C@@H](CCC(N)=O)C(=O)N[C@@H](CC(=O)O)C(=O)N[C@@H](CCCCNC(=O)CCCCCCCCCCCCCCC(=O)O)C(=O)N[C@H](C(=O)N[C@@H](CC(N)=O)C(=O)N[C@@H](Cc1c[nH]c2ccccc12)C(=O)N[C@@H](CC(C)C)C(=O)N[C@@H](CC(C)C)C(=O)N[C@@H](C)C(=O)N[C@@H](CCC(N)=O)C(=O)N[C@@H](CCCCN)C(N)=O)C(C)C)[C@@H](C)CC [AT311, [hGIP(3-30)NH2[F22K]-C16diacid/22]] (H-EGTFISDYSIAMDKIHQQDK(C16 diacid)VNWLLAQK-NH2; N-terminus assumed) | 17.5 | – | –
CC[C@H](C)[C@H](NC(=O)[C@H](CO)NC(=O)[C@H](Cc1ccc(O)cc1)NC(=O)[C@H](CC(=O)O)NC(=O)[C@H](CO)NC(=O)[C@@H](NC(=O)[C@H](Cc1ccccc1)NC(=O)[C@@H](NC(=O)CNC(=O)[C@H](CCC(=O)O)NC(=O)CCCCCCCCCCC(=O)O)[C@@H](C)O)[C@@H](C)CC)C(=O)N[C@@H](C)C(=O)N[C@@H](CCSC)C(=O)N[C@@H](CC(=O)O)C(=O)N[C@@H](CCCCN)C(=O)N[C@H](C(=O)N[C@@H](CCCNC(=N)N)C(=O)N[C@@H](CCC(N)=O)C(=O)N[C@@H](CCC(N)=O)C(=O)N[C@@H](CC(=O)O)C(=O)N[C@@H](Cc1ccccc1)C(=O)N[C@H](C(=O)N[C@@H](CC(N)=O)C(=O)N[C@@H](Cc1c[nH]c2ccccc12)C(=O)N[C@@H](CC(C)C)C(=O)N[C@@H](CC(C)C)C(=O)N[C@@H](C)C(=O)N[C@@H](CCC(N)=O)C(=O)N[C@@H](CCCNC(=N)N)C(N)=O)C(C)C)[C@@H](C)CC [AT149, [hGIP(3-30)NH2[H18R; K30R]-C12diacid/3]] | 50 | 24 | –
